Data as given in US10945980B2, “Treatment for myopia” (The University of Newcastle, priority 2016, dated 2021).

Legend:
[1] = test system: form deprivation myopia in guinea pigs; experiment: Oral (gavage) L-arginine in form deprivation myopia; assay type: in vivo, guinea pig (Cavia porcellus)
Text: Guinea pigs (pigmented variety, Cavia porcellus) were bred, housed, and raised as described in Example 1. The University of Newcastle Animal Care and ethics Committee approved all procedures.
Two experimental protocols were employed (Table 3). In Experiment 1, 12 animals wore a diffuser over one eye (form-deprivation, FD) for […]. This period reliably induces myopia in the deprived eye compared to the untreated fellow eye. Seven of these animals also concurrently received a single gavage of L-arginine (200 mg/kg/day) each day at 9:30 am while briefly anaesthetised. […]
At the end of the FD period, at 12 days of age (Experiment 1) or at […] (Experiment 2), after the morning gavage treatment, both eyes were cyclopleged and 1.25 hours later, refractive error was measured. […]
After cycloplegia was induced, refractive error was measured in each eye using streak retinoscopy as previously described (Howlett and McFadden, 2007; McFadden et al., 2004). The spherical equivalent was calculated as the average of the horizontal and vertical meridians (see Howlett and McFadden, 2006). Next, ocular length was measured using high frequency ultrasound (20 MHz) as previously described (McFadden et al, 2004). At least 20 traces were recorded for each eye and distances were averaged for at least 10 of these recordings. […]

nNOS = nNOS immunohistochemistry of retinal whole mounts 3 hours after intravitreal injection; assay type: in vivo, guinea pig (Cavia porcellus)
Experimental: Two experimental protocols were used. In Experiment 1, young guinea pigs were randomly divided into three drug treatment groups: no injection (n=14), vehicle (n=14) and 0.2 mM L-arginine (n=16). Animals in the latter two groups received a daily 10 μl intravitreal injection in one eye at 7, 8 and 9 days of age (Table 2). […] The fellow eye was untreated. At 10 days of age, the −6D lens was removed, animals were cyclopleged and refractive error was measured in both eyes. In Experiment 2, sixteen guinea pigs received an intravitreal injection of either vehicle (n=8) or 0.2 mM L-arginine (n=8) into their untreated eye at 16 days of age (Table 2). Injections were made 1 hour after the beginning of their 12 hr light cycle. 3 hours after injection, light adapted animals were euthanized, and the injected eye removed and processed using immunohistochemistry.
To make the L-arginine (LA), 217.75 mg of LA (Sigma, A5006) was added to 10 ml of isotonic saline (Pfizer) to create 125 mM fresh stock each day. Hydrochloric acid was used to lower the stock to a pH of 7.4. The stock was diluted with isotonic saline to produce a final dose of 0.185 mM of LA (˜0.2 mM) at the level of the retina based on a vitreous volume of 125 μl and an injection volume of 10 μl. Vehicle injections consisted of 10 μl of isotonic saline (pH 7.4).
Guinea pigs were briefly anaesthetised with isoflurane in oxygen and intravitreal injections were made through the pars plana ˜1 mm posterior to the limbus at an angle of approximately 40° to avoid contact with the crystalline lens and retina. Drugs were delivered using a 0.3 ml syringe (Diabetic BD UltraFine II) with a 31 gauge needle. After the injection, antibiotic gel (Conoptal) was applied lightly to the cornea, and animals recovered rapidly in a warm darkened box.
In Experiment 2, three hours after their intravitreal injection, animals were anaesthetised with isoflurane in oxygen and then euthanized with an […] injection of sodium pentobarbitone (160 mg/kg; Lethabarb) into the heart. The eye that had received treatment was then enucleated. […]

N=C(N)NCCC[C@H](N)C(=O)O [L-arginine]
relative elongation (FD eye vs untreated eye) ([1]; Experiment 1: 200 mg/kg once daily gavage, 7 days FD, p=0.714): 42±30 μm
eye lengths vs animals only fed water ([1]; Experiment 2: 25 mg/kg twice daily gavage, 3 days FD, both the FD eye and the fellow eye): smaller eye lengths than animals only fed water
density of NOS displaced amacrine cells (DACs) vs vehicle injected eyes (nNOS; single intravitreal 0.2 mM L-arginine, 3 hours after injection, each eccentricity from the optic nerve, p<0.001): significantly higher density
density of Type I amacrine cells expressing nNOS vs vehicle injected group (nNOS; single intravitreal 0.2 mM L-arginine, 3 hours after injection, p<0.001): significantly higher density
increase of expression of nNOS in the retina (nNOS; single intravitreal injection of L-arginine (0.2 mM)): approximately 20%
